Experiments:
Type in all cases: in vivo
Drosophila melanogaster = test: Test Example 5: water trap attraction test, mixtures of two compounds; set-up: key: % = (captured treated − captured untreated)×100/total released; settings: weight of each compound 100 μg; 20 adults per cage; 24 hours
Method: Mixed hexane solutions were prepared respectively containing two types of compounds selected from among p-anisaldehyde, benzaldehyde, ethyl nicotinate, geraniol, linalool, nerol, citronellol, methyl anthranilate, methyl benzoate, o-aminoacetophenone, o-anisidine, methyl m-aminobenzoate, methyl o-toluate and α-hexylcinnamaldehyde. The weight of each compound was adjusted to 100 μg. After impregnating pieces of filter paper with the mixed solution of the two types of compounds, the filter paper was affixed on a plastic vial cap using adhesive tape and set up in a water trap containing a surfactant. After releasing 20 adult Drosophila melanogaster into an acrylic cage, the water trap containing the above-mentioned mixed attractants was set up in the cage. 24 hours later, the number of D. melanogaster captured in the water trap was counted and the attraction rate was calculated using Equation 1. In addition, hexane solutions were also prepared containing each of the single compounds at their respective prescribed concentrations for the sake of comparison, and those solutions were tested in the same manner.
(§1) Attraction rate=(No. of captured individuals in treatment−no. of captured individuals in untreatment)*100/(total no. released per cage) (1)
(§2) In general, a synergistic attracting effect expected when mixing two given types of attractive compounds and using for treatment is determined from Colby's equation indicated with the following Equation 2: […]
(§3) X: attraction rate when treated with attractive compound A;
(§4) Y: attraction rate when treated with attractive compound B; and
(§5) E: attraction rate expected when treating by mixing attractive compound A and attractive compound B (expected attraction rate value).

[1] = system: Frankliniella occidentalis; test: Test Example 3: water trap attraction test, mixtures of three compounds; set-up: scale not given here; settings: single compound for comparison, 24 hours
Method: (§6) Mixed hexane solutions were prepared containing three types of compounds selected from among p-anisaldehyde, benzaldehyde, ethyl nicotinate, geraniol, linalool, nerol, citronellol, methyl anthranilate, methyl benzoate, o-aminoacetophenone, o-anisidine, methyl m-aminobenzoate, methyl o-toluate and α-hexylcinnamaldehyde. […] After impregnating pieces of filter paper with the mixed solution of the three types of compounds, the filter paper was affixed on a plastic vial cap using adhesive tape and set up in a pan trap containing a surfactant. After releasing 30 adult female Frankliniella occidentalis into an acrylic cage, the water trap containing the above-mentioned mixed attractants was set up in the cage. 24 hours later, the number of Frankliniella occidentalis captured in the water trap was counted and the attraction rate was calculated using Equation 1. In addition, hexane solutions were also prepared containing each of the single agents at their respective prescribed concentrations for the sake of comparison, and those solutions were tested in the same manner.
In general, a synergistic attracting effect expected when mixing three given types of attractive compounds and using for treatment is determined from Colby's equation indicated with the following Equation 3: […]
as §3
(§7) Y: attraction rate when treated with attractive compound B;
Z: attraction rate when treated with attractive compound C; and
E: attraction rate expected when treating by mixing attractive compound A, attractive compound B and attractive compound C (expected attraction rate value).

[2] = system: Frankliniella occidentalis; test: Test Example 1: water trap attraction test, single compounds; set-up: key: (captured treated − captured untreated)×100/total released per cage; settings: single compound, 30 adult females per cage, 24 hours
Method: Hexane solutions were prepared respectively containing single compounds selected from among p-anisaldehyde, benzaldehyde, ethyl nicotinate, geraniol, linalool, nerol, citronellol, methyl anthranilate, methyl benzoate, o-aminoacetophenone, o-anisidine, methyl m-aminobenzoate, methyl o-toluate and α-hexylcinnamaldehyde. Each single compound was prepared at five concentration levels consisting of 0.01 μg, 0.1 μg, 1 μg, 10 μg and 100 μg. After impregnating pieces of filter paper with these solutions, the filter paper was affixed on a plastic vial cap using adhesive tape and set up in a water trap containing a surfactant. After releasing 30 adult female Frankliniella occidentalis into an acrylic cage, the water trap containing the above-mentioned attractants was set up in the cage. 24 hours later, the number of Frankliniella occidentalis captured in the water trap was counted and the attraction rate was calculated using Equation 1.
as §1

[3] = system: Frankliniella occidentalis; test: Test Example 2: water trap attraction test, mixtures of two compounds; set-up: key: % of released insects: (treated catch − untreated catch)×100/total released; settings: single compound for comparison, 24 hours
Method: as §6, with “were prepared respectively containing two” for “were prepared containing three”, “respectively containing two types of” for “prepared containing three types of”, “of the two types of” for “of the three types of”, “in a water trap containing” for “in a pan trap containing”, “the single compounds at their” for “the single agents at their”
as §1, §2, §3, §4, §5

Tetranychus urticae = test: Test Example 4: plastic tube filter paper contact test, mixtures of two compounds; set-up: key: (treated − untreated contacts) ×100 / repetitions, %; settings: weight of each compound 1 μg; contact with filter paper within 10 minutes
Method: Mixed hexane solutions were prepared respectively containing two types of compounds selected from among p-anisaldehyde, benzaldehyde, ethyl nicotinate, geraniol, linalool, nerol, citronellol, methyl anthranilate, methyl benzoate, o-aminoacetophenone, o-anisidine, methyl m-aminobenzoate, methyl o-toluate and α-hexylcinnamaldehyde. The weight of each compound was adjusted to 1 μg. After impregnating pieces of filter paper (3 mm^2) with the mixed solution of the two types of compounds, the filter paper was set up at the head of a plastic tube (length of 9 cm, 5 mm^2 in diameters). An adult Tetranychus urticae was released into the end of plastic tube. Among 10 minutes, the number of T. urticae contacted the filter paper was counted and the attraction rate was calculated using Equation 1. In addition, hexane solutions were also prepared containing each of the single compounds at their respective prescribed concentrations for the sake of comparison, and those solutions were tested in the same manner.
Attraction rate=(No. of contacted individuals in treatment−no. of contacted individuals in untreatment)*100/(repetition) (1)
as §2, §3, §7, §5

Thrips tabaci = test: Test Example 6: yellow sticky trap attraction test, mixtures of two compounds; set-up: key: % = (captured treated − captured untreated)×100/total released per cup; settings: weight of each compound 1 μg; 10 adults per cup; 24 hours
Method: Mixed hexane solutions were prepared respectively containing two types of compounds selected from among p-anisaldehyde, benzaldehyde, ethyl nicotinate, geraniol, linalool, nerol, citronellol, methyl anthranilate, methyl benzoate, o-aminoacetophenone, o-anisidine, methyl m-aminobenzoate, methyl o-toluate and α-hexylcinnamaldehyde. The weight of each compound was adjusted to 1 μg. After impregnating pieces of filter paper (3 mm^2) with the mixed solution of the two types of compounds, the filter paper was affixed on a yellow sticky trap (1 cm^2). After releasing 10 adult Thrips tabaci into a plastic cup (150 ml), the yellow sticky trap containing the above-mentioned mixed attractants was set up at the side of the plastic cup. 24 hours later, the number of T. tabaci captured in the yellow sticky trap was counted and the attraction rate was calculated using Equation 1. In addition, hexane solutions were also prepared containing each of the single compounds at their respective prescribed concentrations for the sake of comparison, and those solutions were tested in the same manner.
Attraction rate=(No. of captured individuals in treatment−no. of captured individuals in untreatment)*100/(total no. released per cup) (1)
as §2, §3, §7, §5

Row | Structure (SMILES) | Attraction Rate (Drosophila melanogaster) | Attraction Rate ([1]; 1 μg) | Attraction Rate ([2]; Amount 0.01 μg) | Attraction Rate ([2]; Amount 0.1 μg) | Attraction Rate ([2]; Amount 1 μg) | Attraction Rate ([2]; Amount 10 μg) | Attraction Rate ([2]; Amount 100 μg) | Attraction Rate ([3]; 1 μg) | Attraction Rate (Tetranychus urticae) | Attraction Rate ([1]; 100 μg) | Attraction Rate ([3]; 100 μg) | Attraction Rate (Thrips tabaci) | Attraction Rate ([1]; 10 μg) | Attraction Rate ([3]; 10 μg)
1 | O=Cc1ccccc1 [Benzaldehyde, benzaldehyde] | 3 | 36 | 23 | 33 | 36 | 30 | 27 | 36 | 32 | – | – | – | – | –
2 | CC(C)=CCCC(C)CCO (centres unmarked) [Citronellol, citronellol] | 3 | – | 7 | 20 | 20 | 20 | 23 | – | – | 23 | 23 | – | – | –
3 | CCOC(=O)c1cccnc1 [Ethyl nicotinate, ethyl nicotinate] | 3 | – | 13 | 27 | 30 | 36 | 43 | – | 15 | 43 | 43 | 10 | – | –
4 | CC(C)=CCC/C(C)=C/CO [Geraniol, geraniol] | 23 | – | 10 | 17 | 30 | 33 | 27 | – | – | – | – | 0 | 33 | 33
5 | C=CC(C)(O)CCC=C(C)C (centres unmarked) [Linalool, linalool] | 3 | 20 | 13 | 13 | 20 | 13 | 7 | 20 | 5 | – | – | 0 | – | –
6 | COC(=O)c1ccccc1N [Methyl anthranilate, methyl anthranilate] | 8 | – | 10 | 13 | 13 | 17 | 20 | – | – | 20 | 20 | 10 | – | –
7 | COC(=O)c1ccccc1 [Methyl benzoate, methyl benzoate] | 8 | – | 7 | 23 | 27 | 33 | 36 | – | 25 | 46 | 36 | – | – | –
8 | COC(=O)c1cccc(N)c1 [Methyl m-aminobenzoate, methyl m-aminobenzoate] | 8 | – | 3 | 10 | 27 | 33 | 40 | – | – | 40 | 40 | 0 | – | –
9 | COC(=O)c1ccccc1C [Methyl o-toluate, methyl o-toluate] | 3 | – | 3 | 13 | 17 | 20 | 23 | – | 15 | 23 | 23 | – | – | –
10 | CC(C)=CCC/C(C)=C\CO [Nerol, nerol] | 3 | 33 | 10 | 33 | 33 | 30 | 27 | 33 | 5 | – | – | – | – | –
11 | CC(=O)c1ccccc1N [o-aminoacetophenone] | 13 | – | 3 | 17 | 23 | 30 | 36 | – | 38 | 36 | 36 | – | – | –
12 | COc1ccccc1N [o-anisidine] | 8 | – | 6 | 10 | 20 | 30 | 40 | – | 15 | 40 | 40 | 0 | – | –
13 | COc1ccc(C=O)cc1 [p-anisaldehyde] | 3 | – | 17 | 23 | 23 | 30 | 36 | – | – | 36 | 36 | 10 | – | –
14 | CCCCCCC(C=O)=Cc1ccccc1 [α-hexylcinnamaldehyde] | 8 | 33 | 13 | 27 | 33 | 30 | 30 | 33 | – | – | – | 7 | – | –

From patent US20160227776A1, “COMPOSITION CONTAINING ATTRACTANT OF NOXIOUS ARTHROPOD COMPRISING PLANT-DERIVED COMPONENT AND ANALOGUE OF SAME” (KYOYU AGRI CO., LTD., priority 2013, published 2016)
